Source: EPA's ToxValDB 9.5
“And” between values parts separate entries of the source, which are not always exact repeats. Equal values may be shown once. Values belong to the compound of their own block, whether it stands above or below them.

Assays:
[1] = tested on: Rattus norvegicus; conditions: oral
[2] = tested on: Rattus norvegicus; conditions: oral, M/F
[3] = tested on: Canidae; conditions: chronic, oral, diet, Dog Other
[4] = tested on: Rattus norvegicus; conditions: Hershberger, oral, gavage
[5] = tested on: Rattus norvegicus; conditions: oral; remark: listed apart in the source
[6] = tested on: Rattus norvegicus; conditions: oral; for LD50: acute
[7] = tested on: Mus musculus; conditions: for NOAEL / LOAEL: oral
[8] = tested on: Oryctolagus sp.; conditions: New Zealand; for NOAEL: reproduction developmental; for LD50: acute
[9] = subchronic, reduced rbc and plasma cholinesterase activity
[10] = duration: 1 years, F, anemia (males)
[11] = duration: 1 years, M, anemia (males)
[12] = duration: 6 months, M/F, increased serum alkaline phosphatase levels and increased liver-to-brain weight ratio
[13] = duration: 1 years, F, liver effects
[14] = duration: 1 years, M, liver effects
[15] = subchronic, hypoactivity and ataxia
[16] = duration: 6 months, M/F, hematological effects
[17] = subchronic, duration: 90 days, reduced body weight and neurotoxicity
[18] = duration: 1 years, M/F, gastric mucosal irritation
[19] = duration: 2 years, M/F, abnormal pigments in blood
[20] = duration: 2 years, M/F, testicular degeneration
[21] = short-term, duration: 28 days, gavage, M, Sprague-Dawley, Deaths + Clinical Observation: Locomotor activity decrease, SalivationDiarrhea or loose stool Staining around nose and mouth + Functional …
[22] = subchronic, duration: 13 weeks, diet, Fischer 344
[23] = short-term, duration: 13 days, diet, B6C3F1
[24] = subchronic, duration: 13 weeks, diet, B6C3F1

SMILES: NCl [Chloramine]
NOAEL ([1]; chronic, duration: 2 years, drinking water, Kidney: Weight changes + Liver: Weight changes + Whole body: Weight changes): 9.5 mg/kg-day
NOAEL ([2]; chronic, no effects): 9.5 mg/kg-day

SMILES: CCOP(=S)(OCC)OP(=S)(OCC)OCC [Sulfotepp]
NOEL ([1]; subchronic, duration: 3 months, diet, Blood: Decreased cholinesterase activity + Erythrocytes: Decreased cholinesterase activity): 0.5 mg/kg-day
LEL [2, 9]: 1 mg/kg-day
NOEL [2, 9]: 0.5 mg/kg-day

SMILES: CCC/C(=N\OCC)C1=C(O)CC(CC(C)SCC)CC1=O (stereo not given) [Sethoxydim]
LEL [3, 10]: 19.9 mg/kg-day
NOEL [3, 10]: 9.41 mg/kg-day
LEL [3, 11]: 17.5 mg/kg-day
NOEL [3, 11]: 8.86 mg/kg-day

SMILES: COCC(=O)N(c1c(C)cccc1C)C(C)C(=O)OC (stereo not given) [Metalaxyl]
NOEL ([4]; duration: 10 days, Sprague-Dawley, inactive + Negative + Negative + neither + negative): 350 mg/kg-day
LEL [3, 12]: 25 mg/kg-day
NOEL [3, 12]: 6.25 mg/kg-day

SMILES: S=C1NCCN1 [4,5-Dihydro-2-mercaptoimidazole]
NOEL ([5]; subchronic, duration: 13 weeks, diet, M/F, Fischer 344, Body Weight Changes: decrease + Food Consumption: decrease + Histopathology: Thyroid-Diffuse follicular cell hyperplasia Thyroid-Focal …): < 5.76 mg/kg-day
LOAEL ([1]; chronic, duration: 24 months, diet, Thyroid: Hyperplasia): 0.25 mg/kg-day
LOAEL ([2]; chronic, duration: 24 months, diet, increased incidence of thyroid hyperplasia): 0.25 mg/kg-day

SMILES: COC(=O)c1ccccc1CS(=O)(=O)NC(=O)Nc1nc(OC)cc(OC)n1 [Bensulfuron-methyl]
LEL [3, 13]: 223 mg/kg-day
NOEL [3, 13]: 19.9 mg/kg-day
LEL [3, 14]: 237 mg/kg-day
NOEL [3, 14]: 21.4 mg/kg-day

SMILES: CC(C)CO [2-Methyl-1-propanol]
NOAEL ([5]; subchronic, duration: 90 days, gavage, M/F, CD, Deaths + Clinical Observation: Hypoactivity Ataxia Salivation Labored respiration Rales Prostration Hypothermia Emaciation + Body Weight …): 316 mg/kg-day
NOAEL ([5]; subchronic, drinking water, Wistar): 2430 mg/kg-day
NOEL ([1]; subchronic, duration: 13 weeks, gavage, Nervous system: Ataxia + Nervous system: Hypoactivity): 316 mg/kg-day
LOAEL [2, 15]: 1000 mg/kg-day
NOEL [2, 15]: 316 mg/kg-day

SMILES: Nc1nc(N)nc(NC2CC2)n1 [Cyromazine]
LEL [3, 16]: 7.5 mg/kg-day
NOEL [3, 16]: 0.75 mg/kg-day

SMILES: C=CCOC(=O)OCCOCCOC(=O)OCC=C [Diallyl diglycol carbonate]
LD50 ([6]; gavage, Crl): 349 mg/kg
LD50 ([6]; gavage, Fischer 344): 515 mg/kg
LD50 ([7]; acute, injection, Intraperitoneal, albino): 269 mg/kg
NOAEL ([8]; duration: 6 days, dermal): 0.1 mg/kg-day

SMILES: Cc1cccc(O)c1 [m-Cresol]
NOAEL ([5]; short-term, duration: 28 days, diet, M/F, Fischer 344, Body Weight Changes: Mean body weight decrease, Body weight gain decrease + Food Consumption: decrease + Absolute Organ Weight: Brain …): 3000 ppm
NOAEL ([5]; subchronic, duration: 13 weeks, gavage, M/F, Sprague-Dawley, Deaths + Clinical Observation: Lethargy Tremors Hunched posture Rough hair coats + Body Weight Changes: Mean body weight decrease, Body …): 50 mg/kg-day
NOAEL ([1]; subchronic, duration: 90 days, gavage, Nervous system: Neurotoxicity + Whole body: Decreased weight gain): 50 mg/kg-day
LOAEL [2, 17]: 150 mg/kg-day
NOAEL [2, 17]: 50 mg/kg-day

SMILES: CCCC1COC(Cn2cncn2)(c2ccc(Cl)cc2Cl)O1 (stereo not given) [Propiconazole]
NOEL ([4]; duration: 7 days, Wistar, Neither + effect on AGD in 2500mg/kg at birth / significant increase in testis wt at PND 50 in 500 and 2500 mg/kg but not at PND 92 or …): 2500 mg/kg-day
LEL [3, 18]: 6.25 mg/kg-day
NOEL [3, 18]: 1.25 mg/kg-day

LEL [3, 19]: 3.12 mg/kg-day
SMILES: CN(C)C(=O)Nc1ccc(Cl)c(Cl)c1 [Diuron]
NOEL ([5]; subchronic, gavage, M, Sprague-Dawley, Body Weight Changes: decrease + Hematology: RBC decrease, Hgb decrease, Hct decrease, MCHC decrease, MCV increase, Ret increase + Blood …): 20 mg/kg-day
NOEL [3, 19]: 0.625 mg/kg-day

SMILES: CCN(CC)C(=S)SSC(=S)N(CC)CC [Tetraethylthiuram disulfide]
LD50 ([6]; gavage, Sprague-Dawley): 4570 mg/kg and > 5200 mg/kg and 7070 mg/kg
NOAEL ([6]; reproduction developmental, duration: 19 days, gavage, F, Sprague-Dawley): > 250 mg/kg-day
NOAEL ([7]; reproduction developmental, duration: 6 days, gavage, CD1, generation: F1): > 4900 mg/kg-day
LD50 ([8]; dermal, occlusive): > 2000 mg/kg

SMILES: CCOP(=O)=O.CCOP(=O)=O.CCOP(=O)=O.[Al+3] [Fosetyl aluminum]
NOEL ([3]; duration: 2 years, testicular degeneration): 250 mg/kg-day
LEL [3, 20]: 400 mg/kg-day
NOEL [3, 20]: 250 mg/kg-day

SMILES: Cc1cc(O)c(C(C)(C)C)cc1Sc1cc(C(C)(C)C)c(O)cc1C [4,4'-Thiobis(6-tert-butyl-m-cresol)]
NOAEL [5, 21]: 60 mg/kg-day
NOEL [5, 21]: < 60 mg/kg-day
NOEL ([5]; subchronic, duration: 13 weeks, diet, F, Fischer 344, Clinical Observation: Diarrhea + Body Weight Changes: decrease + Food Consumption: decrease + Hematology: Nucleated erythrocyte increase, …): < 15 mg/kg-day
NOEL ([5]; subchronic, duration: 13 weeks, diet, M/F, Fischer 344, Clinical Observation: Diarrhea + Body Weight Changes: decrease + Food Consumption: decrease + Hematology: Nucleated erythrocyte increase, …): < 24 mg/kg-day
LD50 ([6]; diet, Sprague-Dawley): 4150 mg/kg
LD50 ([6]; gavage, Sprague-Dawley): 4150 mg/kg
LOAEL ([6]; short-term, duration: 13 days, diet, Fischer 344): 250 ppm
NOAEL ([6]; short-term, duration: 15 days, diet, Fischer 344): 2500 ppm
LOAEL [6, 22]: 96 mg/kg-day
NOAEL [6, 22]: 48 mg/kg-day
LOAEL [7, 23]: 500 ppm
NOAEL [7, 23]: 250 ppm
LOAEL [7, 24]: 98.5 mg/kg-day
NOAEL [7, 24]: 49.2 mg/kg-day
LD50 ([8]; dermal): > 5010 mg/kg
LD50 ([8]; dermal, occlusive): > 5010 mg/kg
NOAEL ([8]; duration: 13 days, oral, gavage, F): 0.2 mg/kg-day
